The values below come from patent publication US20260325685A1, “Radiopharmaceutical Compositions Targeting Carbonic Anhydrase IX and Uses Thereof” (RayzeBio, Inc., priority 2023, published 2026).

One experiment deals with T1, human CA-IX (Homo sapiens, UniProt Q16790).
T1 construct: purchased Acro CA9-H82E3
In words: Surface Plasmon Resonance (SPR) binding kinetics to recombinant human CA-IX (Biacore 8K, single-cycle kinetics, 1:1 binding model). In outline:
(§1)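 Proteins were captured on streptavidin chips at 1200-1800 RU (CA-IX 180 s, CA-XII 75 s injection). Compound was run at 9 concentrations (100-0.39 nM) in PBS-P+ pH 7.4 with 1% DMSO, 120 s association, 1200 s dissociation, 25° C. Rate constants came from reference- and DMSO-corrected curves.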
On the technique in general: SPR reads the build-up and loss of mass on a sensor chip optically.

In a further experiment the target is T2, human CA-XII (Homo sapiens, UniProt O43570).
T2 construct: purchased Creative BioMart CA12-261H
T2 sequence (O43570 25-354): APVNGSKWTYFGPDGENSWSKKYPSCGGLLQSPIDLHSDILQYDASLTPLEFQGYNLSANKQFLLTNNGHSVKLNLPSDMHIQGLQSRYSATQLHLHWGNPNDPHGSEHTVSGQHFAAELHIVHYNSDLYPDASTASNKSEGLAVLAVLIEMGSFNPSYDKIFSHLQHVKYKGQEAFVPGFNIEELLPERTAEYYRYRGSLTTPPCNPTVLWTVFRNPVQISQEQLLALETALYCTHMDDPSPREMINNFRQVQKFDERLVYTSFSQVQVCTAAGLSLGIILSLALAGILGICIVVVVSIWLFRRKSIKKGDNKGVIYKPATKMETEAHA
Description: Surface Plasmon Resonance (SPR) binding kinetics to recombinant human CA-XII (Biacore 8K, single-cycle kinetics, 1:1 binding model). The method in brief: as §1

[1] abbreviates: Chelated Metal: Lu-175; SPR, 25° C., pH 7.4; read-out: CAIX KD.
The mark [2] stands for this setting: Chelated Metal: Lu-175, 25° C., pH 7.4, read-out: CAXII KD.
Where [3] appears, read: Chelated Metal: None; SPR, 25° C., pH 7.4; read-out: CAIX KD.
Setting [4] is: KD ratio CAXII/CAIX; Chelated Metal: None.
The mark [5] stands for this setting: Chelated Metal: None, 25° C., pH 7.4, read-out: CAXII KD.

Read-outs that look alike come from different tables or passages of the source.

As usually defined, the Kd is the equilibrium constant for the complex coming apart. Turning to `CC(CCCC(=O)N1CCC(C(N)=O)(C(=O)NCC(=O)N2CCN(C(=O)CC[C@H](C(=O)O)N3CCN(CC(=O)O)CCN(CC(=O)O)CCN(CC(=O)O)CC3)C[C@@H]2C(=O)NCCn2cc(C34CC(C(=O)Nc5nnc(S(N)(=O)=O)s5)(C3)C4)nn2)CC1)(c1ccc(O)cc1)c1ccc(O)cc1.[Lu+3]` [Compound 127.2], the Kd on human CA-IX (setting [1]) was < 1 nM; on human CA-XII (setting [2]), > 10 nM.

Take `CC(CCCC(=O)N1CCC(C(N)=O)(C(=O)NCC(=O)N2CCN(C(=O)CCC(C(=O)O)N3CCN(CC(=O)O)CCN(CC(=O)O)CC3)C[C@@H]2C(=O)NCCn2cc(C34CC(C(=O)Nc5nnc(S(N)(=O)=O)s5)(C3)C4)nn2)CC1)(c1ccc(O)cc1)c1ccc(O)cc1.[Cu+2]` (stereo partly shown) [Compound 127.3]: the Kd at human CA-IX (Chelated Metal: Cu (cold); SPR, 25° C., pH 7.4; read-out: CAIX KD) is < 1 nM; on human CA-XII (Chelated Metal: Cu (cold), 25° C., pH 7.4, read-out: CAXII KD) it was > 10 nM.

Turning to `CC(CCCC(=O)N1CCC(C(N)=O)(C(=O)NCC(=O)NC2(C(=O)NCCn3cc(C45CC(C(=O)Nc6nnc(S(N)(=O)=O)s6)(C4)C5)nn3)CCN(C(=O)CC[C@H](C(=O)O)N3CCN(CC(=O)O)CCN(CC(=O)O)CCN(CC(=O)O)CC3)CC2)CC1)(c1ccc(O)cc1)c1ccc(O)cc1.[Lu+3]` [Compound 127.4], the values for the Kd on human CA-IX (setting [1]) and at human CA-XII (setting [2]) were < 1 nM and > 10 nM, respectively.

Regarding `CC(CCCC(=O)N1CCC(C(N)=O)(C(=O)NCC(=O)NC2(C(=O)NCCn3cc(C45CC(c6cn7nc(S(N)(=O)=O)sc7n6)(C4)C5)nn3)CCN(C(=O)CC[C@H](C(=O)O)N3CCN(CC(=O)O)CCN(CC(=O)O)CCN(CC(=O)O)CC3)CC2)CC1)(c1ccc(O)cc1)c1ccc(O)cc1.[Lu+3]` [Compound 127.5], the Kd at human CA-IX (setting [1]) was < 1 nM; on human CA-XII (setting [2]), 2.5 to 10 nM.

As for `CC(CCCC(=O)N1CCC(C(N)=O)(C(=O)NCC(=O)NC2(C(=O)NCCn3cc(C45CCC(c6cn7nc(S(N)(=O)=O)sc7n6)(CC4)CC5)nn3)CCN(C(=O)CC[C@H](C(=O)O)N3CCN(CC(=O)O)CCN(CC(=O)O)CCN(CC(=O)O)CC3)CC2)CC1)(c1ccc(O)cc1)c1ccc(O)cc1.[Lu+3]` [Compound 127.6], the Kd on human CA-IX (setting [1]) and on human CA-XII (setting [2]) was < 1 nM each time.

In the case of `Cc1cc(C(=O)Nc2nnc(S(N)(=O)=O)s2)ccc1-c1cn(CCNC(=O)C2(NC(=O)CNC(=O)C3(C(N)=O)CCN(C(=O)CCCC(C)(c4ccc(O)cc4)c4ccc(O)cc4)CC3)CCN(C(=O)CC[C@H](C(=O)O)N3CCN(CC(=O)O)CCN(CC(=O)O)CCN(CC(=O)O)CC3)CC2)nn1.[Lu+3]` [Compound 127.7], the figures for the Kd at human CA-IX (setting [1]) and at human CA-XII (setting [2]) were < 1 nM and > 10 nM, respectively.

Regarding `CC(CCCC(=O)N1CCC(C(N)=O)(C(=O)NCC(=O)N2CCN(C(=O)CC[C@H](C(=O)O)N3CCN(CC(=O)O)CCN(CC(=O)O)CCN(CC(=O)O)CC3)C[C@H]2C(=O)NCCn2cc(C34CC(C(=O)Nc5nnc(S(N)(=O)=O)s5)(C3)C4)nn2)CC1)(c1ccc(O)c(F)c1)c1ccc(O)c(F)c1.[Lu+3]` [Compound 127.8], the figures for the Kd at human CA-IX (setting [1]) and on human CA-XII (setting [2]) were < 1 nM and > 10 nM, respectively.

As to `CC(CCCC(=O)N1CCC(C(N)=O)(C(=O)NCC(=O)NC2(C(=O)NCCn3cc(COc4ccc5nc(S(N)(=O)=O)sc5c4)nn3)CCN(C(=O)CC[C@H](C(=O)O)N3CCN(CC(=O)O)CCN(CC(=O)O)CCN(CC(=O)O)CC3)CC2)CC1)(c1ccc(O)cc1)c1ccc(O)cc1.[Lu+3]` [Compound 127.9], the Kd on human CA-IX (setting [1]) was < 1 nM; at human CA-XII (setting [2]) it was > 10 nM.

Consider `CC(CCC(=O)N[C@@H](CC(=O)N[C@@H](CC(=O)N1CCN(C(=O)CC[C@H](C(=O)O)N2CCN(CC(=O)O)CCN(CC(=O)O)CCN(CC(=O)O)CC2)C[C@H]1C(=O)NCCn1cc(C23CC(C(=O)Nc4nnc(S(N)(=O)=O)s4)(C2)C3)nn1)C(=O)O)C(=O)O)(c1ccc(O)cc1)c1ccc(O)cc1.[Lu+3]` [Compound 127], for which the Kd was < 1 nM at human CA-IX (setting [1]) and > 10 nM on human CA-XII (setting [2]).

Regarding `CC[C@H]1CN(CC(=O)O)[C@@H](CC)CN(CC(=O)N2CCN(C(=O)CNC(=O)C3(C(N)=O)CCN(C(=O)CCCC(C)(c4ccc(O)cc4)c4ccc(O)cc4)CC3)[C@H](C(=O)NCCn3cc(C45CC(C(=O)Nc6nnc(S(N)(=O)=O)s6)(C4)C5)nn3)C2)[C@@H](CC)CN(CC(=O)O)[C@@H](CC)CN1CC(=O)O.[Lu+3]` [Compound 128.1], the figures for the Kd on human CA-IX (setting [1]) and at human CA-XII (setting [2]) were < 1 nM and > 10 nM, respectively.

Consider `CC[C@H]1CN(CC(=O)O)[C@@H](CC)CN(CC(=O)N2CCN(C(=O)C[C@H](NC(=O)C[C@H](NC(=O)CCC(C)(c3ccc(O)cc3)c3ccc(O)cc3)C(=O)O)C(=O)O)[C@H](C(=O)NCCn3cc(C45CC(C(=O)Nc6nnc(S(N)(=O)=O)s6)(C4)C5)nn3)C2)[C@@H](CC)CN(CC(=O)O)[C@@H](CC)CN1CC(=O)O.[Lu+3]` [Compound 128], for which the Kd was < 1 nM at human CA-IX (setting [1]) and > 10 nM at human CA-XII (setting [2]).

Take `CC(CCCC(=O)N1CCC(C(N)=O)(C(=O)NCC(=O)N2CCN(C(=O)CCOCCOCCOCCOCCOCCOCCOCCOCCNC(=O)CN3CCN(CC(=O)O)CCN(CC(=O)O)CCN(CC(=O)O)CC3)C[C@H]2C(=O)NCCn2cc(C34CC(C(=O)Nc5nnc(S(N)(=O)=O)s5)(C3)C4)nn2)CC1)(c1ccc(O)cc1)c1ccc(O)cc1.[Lu+3]` [Compound 129.1]: the Kd on human CA-IX (setting [1]) is < 1 nM; on human CA-XII (setting [2]) it was > 10 nM.

On to `CC(CCCC(=O)N1CCC(C(N)=O)(C(=O)NCC(=O)N2CCN(C(=O)CCOCCOCCNC(=O)CN3CCN(CC(=O)O)CCN(CC(=O)O)CCN(CC(=O)O)CC3)C[C@@H]2C(=O)NCCn2cc(C34CC(C(=O)Nc5nnc(S(N)(=O)=O)s5)(C3)C4)nn2)CC1)(c1ccc(O)cc1)c1ccc(O)cc1.[Lu+3]` [Compound 129.2], for which the Kd was < 1 nM on human CA-IX (setting [1]) and > 10 nM at human CA-XII (setting [2]).

`CC(CCCC(=O)N1CCC(C(N)=O)(C(=O)NCC(=O)N2CCN(C(=O)CN3CCN(C(=O)CN4CCN(CC(=O)O)CCN(CC(=O)O)CCN(CC(=O)O)CC4)CC3)C[C@@H]2C(=O)NCCn2cc(C34CC(C(=O)Nc5nnc(S(N)(=O)=O)s5)(C3)C4)nn2)CC1)(c1ccc(O)cc1)c1ccc(O)cc1.[Lu+3]` [Compound 129.3]: the Kd was < 1 nM at human CA-IX (setting [1]) and > 10 nM on human CA-XII (setting [2]).

Turning to `CC(CCCC(=O)N1CCC(C(N)=O)(C(=O)NCC(=O)N2CCN(C(=O)CCOCCOCCCC(=O)CN3CCN(CC(=O)O)CCN(CC(=O)O)CCN(CC(=O)O)CC3)C[C@H]2C(=O)NCCn2cc(C34CC(C(=O)Nc5nnc(S(N)(=O)=O)s5)(C3)C4)nn2)CC1)(c1ccc(O)cc1)c1ccc(O)cc1` [Compound 129.4], the figures for the Kd at human CA-IX (setting [3]) and at human CA-XII (setting [5]) were < 1 nM and > 10 nM, respectively. Also, on human CA-IX (setting [4]), the “Ratio (CAXII/CAIX)” value is “**** (50 < ****)”.

Turning to `CC(CCCC(=O)N1CCC(C(N)=O)(C(=O)NCC(=O)NC2(C(=O)NCCn3cc(C45CC(C(=O)Nc6nnc(S(N)(=O)=O)s6)(C4)C5)nn3)CCN(C(=O)CCOCCOCCOCCOCCOCCOCCOCCOCCNC(=O)CN3CCN(CC(=O)O)CCN(CC(=O)O)CCN(CC(=O)O)CC3)CC2)CC1)(c1ccc(O)cc1)c1ccc(O)cc1.[Lu+3]` [Compound 129.5], the Kd at human CA-IX (setting [1]) was < 1 nM; at human CA-XII (setting [2]), > 10 nM.

On to `CC(CCCC(=O)N1CCC(C(N)=O)(C(=O)NCC(=O)NC2(C(=O)NCCn3cc(C45CC(C(=O)Nc6nnc(S(N)(=O)=O)s6)(C4)C5)nn3)CCN(C(=O)CN3CC4(C3)CN(C(=O)CN3CCN(CC(=O)O)CCN(CC(=O)O)CCN(CC(=O)O)CC3)C4)CC2)CC1)(c1ccc(O)cc1)c1ccc(O)cc1.[Lu+3]` [Compound 129.7], for which the values for the Kd at human CA-IX (setting [1]) and on human CA-XII (setting [2]) were < 1 nM and > 10 nM, respectively.

With `CC(CCC(=O)N[C@@H](CC(=O)N[C@@H](CC(=O)N1CCN(C(=O)CCOCCOCCOCCOCCOCCOCCOCCOCCNC(=O)CN2CCN(CC(=O)O)CCN(CC(=O)O)CCN(CC(=O)O)CC2)C[C@H]1C(=O)NCCn1cc(C23CC(C(=O)Nc4nnc(S(N)(=O)=O)s4)(C2)C3)nn1)C(=O)O)C(=O)O)(c1ccc(O)cc1)c1ccc(O)cc1.[Lu+3]` [Compound 129], the dissociation constant Kd on human CA-IX (read-out: CAIX KD; Chelated Metal: Lu-175; SPR, 25° C., pH 7.4) was 1 to 2.5 nM; on human CA-XII (read-out: CAXII KD, Chelated Metal: Lu-175, 25° C., pH 7.4) it was > 10 nM.

In the case of `CC(CCC(=O)N[C@@H](CC(=O)N[C@@H](CC(=O)N1CCN(C(=S)Nc2ccc3c(c2)OCCN(Cc2cccc(C(=O)O)n2)CCOCCOCCN(Cc2cccc(C(=O)O)n2)CCO3)C[C@H]1C(=O)NCCn1cc(C23CC(C(=O)Nc4nnc(S(N)(=O)=O)s4)(C2)C3)nn1)C(=O)O)C(=O)O)(c1ccc(O)cc1)c1ccc(O)cc1` [Compound 130], the Kd at human CA-IX (setting [3]) was < 1 nM; on human CA-XII (setting [5]), 2.5 to 10 nM. The “Ratio (CAXII/CAIX)” value on human CA-IX (setting [4]) is “*** (10 < *** ≤ 50)”.

`CC(CCC(=O)N[C@@H](CC(=O)N[C@@H](CC(=O)N1CCN(C(=O)CCOCCOCCOCCOCCN(CCOCCOCCOCCOCCC(=O)N2CCN(C(=O)C[C@H](NC(=O)C[C@H](NC(=O)CCC(C)(c3ccc(O)cc3)c3ccc(O)cc3)C(=O)O)C(=O)O)[C@H](C(=O)NCCn3cc(C45CC(C(=O)Nc6nnc(S(N)(=O)=O)s6)(C4)C5)nn3)C2)C(=O)CN2CCN(CC(=O)O)CCN(CC(=O)O)CCN(CC(=O)O)CC2)C[C@H]1C(=O)NCCn1cc(C23CC(C(=O)Nc4nnc(S(N)(=O)=O)s4)(C2)C3)nn1)C(=O)O)C(=O)O)(c1ccc(O)cc1)c1ccc(O)cc1` [Compound 131.1]: the Kd on human CA-IX (setting [3]) and at human CA-XII (setting [5]) was < 1 nM each time. Besides, the “Ratio (CAXII/CAIX)” value on human CA-IX (setting [4]) was “* (1 < * < 5)”.
